For orientation: IC50 means the concentration needed to halve the response being measured.

Structures are written as SMILES.

The experiment deals with Serine/threonine-protein kinase ATR (Homo sapiens, UniProt Q13535). Nature of the experiment: ATR Kinase Activity Assay. How it is done: Biotinylated protein derived from p53 (Eurofins, art. No.: 14-952) was phosphorylated with ATR kinase. The amount of phosphorylated protein was determined by time-resolved fluorescence in this assay. The amount of phosphorylated protein was detected by anti-p53-phospho-(serine 15)-K-specific antibody (Cisbio, art. No.: 61GSTDLA) and d2 labeled anti-GST antibody (Cisbio, art. No. 61P08KAE). Before the experiment, the following working solution was prepared as required: 1× reaction buffer (20 mM HEPES PH8.0, 1% glycerol, 0.01% Brij-35), dilution buffer (20 mM HEPES PH8.0, 1% glycerol, 0.01% Brij-35, 5 mM DTT and 1% BSA), stop solution (20 mM HEPES PH8.0, 1% glycerol, 0.01% Brij-35, 250 mM EDTA), detection buffer (50 mM HEPES pH7.0, 150 mM NaCl, 267 mM KF, 0.1% sodium cholate, 0.01% Tween-20, 0.0125% sodium azide). The reagents used above are purchased from Sigma or Invitrogen, except for those where the manufacturer was mentioned.
Serine/threonine-protein kinase ATR, sequence (Q13535 whole entry): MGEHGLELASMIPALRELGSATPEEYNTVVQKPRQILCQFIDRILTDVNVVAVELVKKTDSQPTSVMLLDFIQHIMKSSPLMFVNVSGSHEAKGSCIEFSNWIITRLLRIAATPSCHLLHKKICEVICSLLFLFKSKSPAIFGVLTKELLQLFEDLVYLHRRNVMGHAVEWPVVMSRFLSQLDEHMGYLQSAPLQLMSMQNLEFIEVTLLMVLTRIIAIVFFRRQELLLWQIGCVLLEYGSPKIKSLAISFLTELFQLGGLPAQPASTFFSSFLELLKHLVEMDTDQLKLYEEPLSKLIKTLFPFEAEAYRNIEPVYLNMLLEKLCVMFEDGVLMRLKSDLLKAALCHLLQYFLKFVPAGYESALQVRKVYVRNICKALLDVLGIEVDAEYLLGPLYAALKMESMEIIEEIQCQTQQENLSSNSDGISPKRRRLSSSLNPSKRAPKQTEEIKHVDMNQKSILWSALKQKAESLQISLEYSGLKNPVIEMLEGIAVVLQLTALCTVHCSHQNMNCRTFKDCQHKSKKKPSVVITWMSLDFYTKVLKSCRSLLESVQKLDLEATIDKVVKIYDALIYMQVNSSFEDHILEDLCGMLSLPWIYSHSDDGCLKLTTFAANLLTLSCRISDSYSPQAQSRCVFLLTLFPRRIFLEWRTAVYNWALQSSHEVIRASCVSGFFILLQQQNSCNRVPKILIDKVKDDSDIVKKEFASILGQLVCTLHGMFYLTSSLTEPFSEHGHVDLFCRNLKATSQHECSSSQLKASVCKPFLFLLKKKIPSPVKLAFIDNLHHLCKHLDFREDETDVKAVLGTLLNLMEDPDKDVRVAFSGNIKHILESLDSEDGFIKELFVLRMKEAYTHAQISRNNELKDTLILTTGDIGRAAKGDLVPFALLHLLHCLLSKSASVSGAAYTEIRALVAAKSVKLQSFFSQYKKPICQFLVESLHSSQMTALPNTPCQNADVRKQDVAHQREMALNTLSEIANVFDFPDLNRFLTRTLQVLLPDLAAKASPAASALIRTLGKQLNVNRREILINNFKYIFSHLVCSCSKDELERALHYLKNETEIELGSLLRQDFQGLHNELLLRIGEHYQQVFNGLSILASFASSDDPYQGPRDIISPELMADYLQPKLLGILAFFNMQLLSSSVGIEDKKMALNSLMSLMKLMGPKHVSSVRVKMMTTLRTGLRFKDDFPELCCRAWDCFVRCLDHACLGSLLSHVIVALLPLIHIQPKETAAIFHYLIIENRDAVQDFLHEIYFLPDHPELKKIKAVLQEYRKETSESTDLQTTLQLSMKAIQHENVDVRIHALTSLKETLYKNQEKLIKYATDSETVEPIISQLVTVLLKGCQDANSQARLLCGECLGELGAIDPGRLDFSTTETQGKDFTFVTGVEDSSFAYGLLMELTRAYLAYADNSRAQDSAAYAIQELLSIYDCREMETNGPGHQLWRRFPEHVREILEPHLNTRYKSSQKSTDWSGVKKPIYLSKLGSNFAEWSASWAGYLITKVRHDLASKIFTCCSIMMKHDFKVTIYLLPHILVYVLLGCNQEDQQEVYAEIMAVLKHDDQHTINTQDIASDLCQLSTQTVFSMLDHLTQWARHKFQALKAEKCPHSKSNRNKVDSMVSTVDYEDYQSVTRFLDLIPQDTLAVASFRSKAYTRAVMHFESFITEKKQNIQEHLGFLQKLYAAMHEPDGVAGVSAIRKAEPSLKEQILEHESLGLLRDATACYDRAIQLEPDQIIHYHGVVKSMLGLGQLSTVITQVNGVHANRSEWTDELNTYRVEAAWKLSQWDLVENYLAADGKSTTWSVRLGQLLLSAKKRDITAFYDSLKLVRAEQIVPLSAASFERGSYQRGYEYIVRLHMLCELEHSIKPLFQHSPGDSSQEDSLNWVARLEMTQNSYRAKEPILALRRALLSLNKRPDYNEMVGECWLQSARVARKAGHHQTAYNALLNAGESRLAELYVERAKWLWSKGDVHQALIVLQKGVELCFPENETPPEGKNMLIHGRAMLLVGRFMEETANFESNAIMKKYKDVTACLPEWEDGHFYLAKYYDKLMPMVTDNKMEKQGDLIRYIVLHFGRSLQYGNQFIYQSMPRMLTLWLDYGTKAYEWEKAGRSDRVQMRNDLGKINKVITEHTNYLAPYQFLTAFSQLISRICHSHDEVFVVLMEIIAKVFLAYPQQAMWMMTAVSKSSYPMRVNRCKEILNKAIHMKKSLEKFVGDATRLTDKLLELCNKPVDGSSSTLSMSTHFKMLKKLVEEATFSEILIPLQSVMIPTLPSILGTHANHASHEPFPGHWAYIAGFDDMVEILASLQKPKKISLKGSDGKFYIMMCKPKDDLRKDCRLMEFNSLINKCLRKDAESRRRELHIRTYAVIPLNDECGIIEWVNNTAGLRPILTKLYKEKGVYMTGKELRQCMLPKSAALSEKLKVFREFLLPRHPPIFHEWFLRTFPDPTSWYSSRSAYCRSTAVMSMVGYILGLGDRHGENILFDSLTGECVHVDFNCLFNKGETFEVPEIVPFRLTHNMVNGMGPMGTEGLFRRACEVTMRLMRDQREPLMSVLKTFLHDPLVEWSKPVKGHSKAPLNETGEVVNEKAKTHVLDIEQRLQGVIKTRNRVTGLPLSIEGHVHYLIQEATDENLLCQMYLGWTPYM

`Cc1nn(C)c(C)c1-c1cc(N2CCOC[C@H]2C)nc(-c2ccnc(C(F)F)c2)n1` [US12544382, Example A25] yielded a 50% inhibitory concentration (IC50) of 2320 nM.
For `Cc1n[nH]c(C)c1-c1cc(N2CCOC[C@H]2C)nc(-c2ccnc3c2ccn3CC2CNC2)n1` [US12544382, Example A27] the value was 47 nM; for `CNc1nc2ccccc2n1-c1nc(-c2c(C)nn(C3CCNCC3)c2C(F)(F)F)cc(N2CCOC[C@H]2C)n1` [US12544382, Example D24], 3 nM.
For `CNc1nc2cc(Cl)ccc2n1-c1nc(-c2c(C)nn(C3CCNCC3)c2C(F)(F)F)cc(N2CCOC[C@H]2C)n1` [US12544382, Example D25] the value was 83 nM.
